Reference: US4705805A, “Antithrombotic agent” (priority 1978, dated 1987)

Columns and labels:
[1] = test system: rabbit blood platelets (platelet rich plasma), collagen-induced aggregation; experiment: inhibition of platelet aggregation in rabbit platelet rich plasma (in vitro), induced by collagen; format: cell-based; settings: Oryctolagus cuniculus, Platelet, rabbit PRP, read-out: percentage of inhibition, collagen; for inhibition at 10 µg/mL: 10 μg/ml; for inhibition at 30 µg/mL: 30 μg/ml; for inhibition at 100 µg/mL: 100 μg/ml
Method: (§1) In this example, the inhibition of platelet aggregation in rabbit platelet rich plasma (in vitro) is tested.
(§2) In this test, 9 vol. of blood is sampled from the carotid artery of rabbits (2 to 2.5 Kg) and placed in a silicon-coated flask containing 1 vol. of 3.8% sodium citrate. The thus obtained blood is centrifuged at 1,000 rpm for 15 minutes to obtain platelet rich plasma (referred to as "PRP" hereinafter). The aggregation of blood platelets is observed using an aggregometer (made by Bryston Co.) and the degree of aggregation after the addition of aggregation promoting substances is measured by nephelometry, i.e., through increase in light transmission.
(§3) The PRP (0.9 ml) is placed in a silicon-coated cuvett of the aggregometer. Then, 0.05 ml of physiological saline solution containing various concentrations of test reagents or control reagents is added and the mixture is allowed to stand for one minute. Compounds promoting aggregation are then added and the absorbancy of the solution is measured and the percent inhibition of aggregation is calculated according to the following equation: [formula] C: Transmittancy showing the maximum percent aggregation by physiological saline solution
(§4) D: Transmittancy showing the maximum percent aggregation by sample
(§5) Test for the inhibition of platelet aggregation induced by ADP, collagen and thrombin.

[2] = acute toxicity, Behrens-Karber's method; format: in vivo; settings: in vivo; mouse, oral
Method: In this example, the acute toxicity of compounds of the invention is determined by Behrens-Karber's method using, 5 male dd-strain for each group weighing 20±1 g. A 0.3% CMC suspension of the test compound (concentration of the test compound: 100 mg/ml) is then orally administered to each mouse.

[3] = test system: rabbit blood platelets (platelet rich plasma), ADP-induced aggregation; experiment: inhibition of platelet aggregation in rabbit platelet rich plasma (in vitro), induced by ADP; format: cell-based; settings: Oryctolagus cuniculus, Platelet, rabbit PRP, ADP 10^-5 M, read-out: percentage of inhibition, ADP; for inhibition at 10 µg/mL: 10 μg/ml; for inhibition at 30 µg/mL: 30 μg/ml; for inhibition at 100 µg/mL: 100 μg/ml
Method: as §1, §2, §3, §4, §5

| SMILES | inhibition at 10 µg/mL [1] | inhibition at 30 µg/mL [1] | inhibition at 100 µg/mL [1] | LD50 [2] | inhibition at 10 µg/mL [3] | inhibition at 30 µg/mL [3] | inhibition at 100 µg/mL [3] | inhibition at 3 µg/mL ([1]; 3 μg/ml) | inhibition at 3 µg/mL ([3]; 3 μg/ml) |
| --- | --- | --- | --- | --- | --- | --- | --- | --- | --- |
| O=C(Nc1ccccc1Cl)c1ccccc1SSc1ccccc1C(=O)Nc1ccccc1Cl [Compound X, 2,2'-dithiobis(N-o-chlorophenylbenzamide)] | 4% | 63% | 100% | ≥ 1000 mg/kg | 0% | 24% | 96% | – | – |
| CCCCCCCCCCCC(=O)OCCCNC(=O)c1ccccc1SSc1ccccc1C(=O)NCCCOC(=O)CCCCCCCCCCC [Compound XXI, 2,2'-dithiobis(N-dodecanoyloxypropylbenzamide)] | – | 0% | 33% | – | – | 5% | 32% | – | – |
| CCCCCCCCCCCC(=O)OC(C)CNC(=O)c1ccccc1SSc1ccccc1C(=O)NCC(C)OC(=O)CCCCCCCCCCC (stereo not shown) [Compound XXIII, 2,2'-dithiobis(N-2-dodecanoyloxypropylbenzamide)] | – | 52% | 100% | – | – | 19% | 93% | – | – |
| CCCCN(CCCC)C(=O)c1ccccc1SSc1ccccc1C(=O)N(CCCC)CCCC [Compound VIII, 2,2'-dithiobis(N-dibutylbenzamide)] | – | 0% | 13% | ≥ 1000 mg/kg | – | 0% | 9% | – | – |
| O=C(NCc1ccccc1)c1ccccc1SSc1ccccc1C(=O)NCc1ccccc1 [Compound II, 2,2'-dithiobis(N-benzylbenzamide)] | – | – | 1.2% | ≥ 300 mg/kg | – | – | 2.7% | – | – |
| COC(CNC(=O)c1ccccc1SSc1ccccc1C(=O)NCC(OC)OC)OC [Compound XXXIV, 2,2'-dithiobis(N-2,2-di-methoxyethylbenzamide)] | 87% | 100% | – | – | 35% | 83% | – | 21% | 21% |
| O=C(NC1CCC(O)CC1)c1ccccc1SSc1ccccc1C(=O)NC1CCC(O)CC1 (stereo not shown) [Compound XXXVI, 2,2'-dithiobis[N-(4-hydroxycyclohexyl)benzamide]] | – | 8% | 95% | – | – | – | 35% | – | – |
| CCCCCCCCCCCCCCCCCCNC(=O)c1ccccc1SSc1ccccc1C(=O)NCCCCCCCCCCCCCCCCCC [Compound VII, 2,2'-dithiobis(N-octadecylbenzamide)] | – | 0% | 38% | – | – | 0% | 10% | – | – |
| Nc1ncnc2c1ncn2[C@@H]1O[C@H](CO)[C@@H](O)[C@H]1O [adenosine, reference compound] | – | – | – | – | – | – | 39% | – | – |
| O=C(NCN1CCCCC1)c1ccccc1SSc1ccccc1C(=O)NCN1CCCCC1 [Compound XXXVII, 2,2'-dithiobis(N-piperidinylmethylbenzamide)] | – | – | – | – | – | – | 20% | – | – |
| CCCCCCCCCCCCCCCC(=O)OC(C)CNC(=O)c1ccccc1SSc1ccccc1C(=O)NCC(C)OC(=O)CCCCCCCCCCCCCCC (stereo not shown) [Compound XXIV, 2,2'-dithiobis(N-2-hexadecanoyloxypropylbenzamide)] | – | 19% | 86% | – | – | 0% | 59% | – | – |
| CCCCCCCCCCCCCCCC(=O)OCCCNC(=O)c1ccccc1SSc1ccccc1C(=O)NCCCOC(=O)CCCCCCCCCCCCCCC [Compound XXII, 2,2'-dithiobis(N-hexadecanoyloxypropylbenzamide)] | – | 0% | 18% | – | – | 0% | 40% | – | – |
